A melting point compilation (Tetko et al.; mined from patent text by program, amines drawn as free bases though some values may be those of a salt)

Compared with `COc1cccc(CC(=O)Nc2ccc3sc(C)nc3c2Cl)c1`, `COC(=O)COC(=O)C(C)c1ccc2cc(O)ccc2c1` (centres undefined) is lower in melting point: 147 to 148 °C for the first, 84.5 to 87 °C for the second.

First: CCCCCCCCCCCCCCCCCCOc1cc(OCCCOc2cccc(Br)c2)cc(N(CC(=O)OC)CC(=O)OC)c1
Second: COc1ccc2cc([C@H](C)C(=O)OCCOc3ccc(OCCO)cc3)ccc2c1
The melting point of the first is lower: 48 to 50 °C for the first, 76 to 78 °C for the second.

Compared with `CC(=O)c1ccc(N(C)Cc2ccccc2)c(S(N)(=O)=O)c1`, `O=C(Nc1cccc(S(=O)(=O)C(F)(F)F)c1)c1cc2ccccc2cc1O` is higher in melting point: 159 to 161 °C for the first, 212 to 213 °C for the second.

First: COc1ccc(OCCCCCCO)cc1
Second: CCc1oc2ccccc2c1C(=O)c1ccc(OCC(=O)OC)cc1
The melting point of the first is lower: 63 to 64 °C for the first, 72 to 74 °C for the second.

Compared with `CCN1c2ccccc2Sc2ccccc21`, `CN(C)Cc1nnc2n1-c1ccccc1C(c1ccccc1Cl)=NC2` is higher in melting point: 103 to 104 °C for the first, 143 to 145 °C for the second.

First: Cc1c(NC(=O)c2cccc(OCC(=O)OC(C)(C)C)c2)c2ccccn2c1C(=O)c1ccc(NC(=O)C(F)(F)F)c(C(=O)OCc2ccccc2)c1
Second: O=C(NC(Cc1ccccc1)C(=O)O)OCc1ccc(COCc2ccccc2)cc1 (centres undefined)
The melting point of the first is higher: 200 °C for the first, 78.3 to 79.9 °C for the second.

Compared with `CCCCNS(=O)(=O)CC(O)C(O)C(CC1CCCCC1)NC(=O)c1ccc(O)c(O)c1` (centres undefined), `O=C(NC1CCN(C2CCCCC2)C1)c1cc([N+](=O)[O-])cc([N+](=O)[O-])c1` (centres undefined) is lower in melting point: 162 to 165 °C for the first, 159 to 161 °C for the second.

Compared with `O=C1Nc2cc(F)c(F)cc2N2CCNCC12` (centres undefined), `O=C1C2CCCCC2C(=O)N1c1ccc(F)cc1F` (centres undefined) is lower in melting point: 226 to 228 °C for the first, 117 to 123 °C for the second.

First: Cc1ccc2c(c1)nc(/C=C/c1ccccc1)n2-c1ccccn1
Second: N#CCc1cccc(OCc2csc(-c3ccccc3)n2)c1
The melting point of the first is higher: 145 to 146 °C for the first, 108 to 110 °C for the second.

Compared with `CC(C)(C)c1cc(CC2SC(=S)NC2=O)cc(C(C)(C)C)c1O` (centres undefined), `CC(C)(C)[Si](C)(C)OCCCn1ccc2c3c(c(-c4ccccc4Cl)cc21)C(=O)NC3=O` is lower in melting point: 178 to 179 °C for the first, 158 to 160 °C for the second.

Compared with `CC(C)(C)Nc1nccc(C#Cc2ccc(F)cc2)n1`, `CNc1nc(-c2ccc(F)cc2)c(-c2ccc(S(C)(=O)=O)cc2)s1` is higher in melting point: 97 to 99 °C for the first, 243 to 244 °C for the second.

First: CCCCn1ccc(-c2ccc(Oc3ccnc(C)c3)cc2F)c(C#N)c1=O
Second: CCOC(=O)c1c2ccc(Cl)cc2c(-c2ccccc2)n1CCO
The melting point of the first is higher: 127 °C for the first, 114 to 116 °C for the second.

Compared with `CC(C)(C)[Si](C)(C)OC1=Cc2ccccc2C1[Si](C)(C)C1C(O[Si](C)(C)C(C)(C)C)=Cc2ccccc21` (centres undefined), `NOCc1cnn(C(c2ccccc2)(c2ccccc2)c2ccccc2)c1` is higher in melting point: 92 to 94 °C for the first, 133 to 136 °C for the second.

Compared with `Brc1ccc2ccc3ccccc3c2n1`, `O=C1CC(=Cc2cccc3ccccc23)C(=O)O1` is higher in melting point: 113 to 114 °C for the first, 162 to 164 °C for the second.

`CN1CCC(C2c3ccccc3CCc3cccnc32)CC1` (centres undefined) and `CN1C(=O)C(N)N=C(c2ccccc2)c2cnccc21` (centres undefined) cannot be ordered by melting point: 111 to 114 °C for the first, 109 to 123 °C for the second.

First: O=S(=O)(CS(=O)(=O)/C(F)=C(/F)c1c(F)c(F)c(F)c(F)c1F)/C(F)=C(/F)c1c(F)c(F)c(F)c(F)c1F
Second: O=C(O)c1cn(C2COC2)c2c(F)c(F)c(F)cc2c1=O
The melting point of the first is lower: 193 to 195 °C for the first, 203 to 206 °C for the second.

Compared with `O=C1c2ccc(F)cc2C(=O)N1CCN1CCN(c2n[nH]c3cc(F)ccc23)CC1`, `CCN1CCN(CC(=O)NC2(c3ccc(Cl)cc3)C(=O)Nc3cc(C#N)cc(C(F)(F)F)c32)CC1` (centres undefined) is lower in melting point: 282 to 285 °C for the first, 260 to 262 °C for the second.

Compared with `O=c1ccn(-c2ccc(-c3ccc(=O)[nH]n3)cc2)cc1`, `Cc1ccc(-c2cc3cc(C=O)ccc3o2)cc1` is lower in melting point: 339 to 341 °C for the first, 162 to 164 °C for the second.

First: CCOCc1nc2c(N)nc3ccccc3c2n1CCCCS(=O)(=O)Nc1ccccn1
Second: O=C(O)COc1cc(NS(=O)(=O)c2cccs2)c2ccccc2c1O
The melting point of the first is higher: 197 to 200 °C for the first, 155 to 157 °C for the second.

First: CC(=O)OC12Oc3cc(C(C)C)ccc3C1(OC(C)=O)C(=O)c1c(NS(C)(=O)=O)cccc12 (centres undefined)
Second: CCS(=O)(=O)Nc1cccc(C)c1C(N)c1cccn2c(C)c(C)nc12 (centres undefined)
The melting point of the first is lower: 96 to 100 °C for the first, 240 to 242 °C for the second.

Compared with `COc1ccc(Cn2c(=S)[nH]c(=O)c3[nH]cnc32)cc1OC1CCCC1`, `COc1ccc2c(c1OC)CCN(CCc1ccc([N+](=O)[O-])cc1)C2` is lower in melting point: 254 to 265 °C for the first, 97 °C for the second.

First: CC(C)c1cccc2c1C(=O)NS2(=O)=O
Second: CCOC(=O)c1cnc(-c2ccccc2OC(C)C)[nH]c1=O
The melting point of the first is higher: 177 °C for the first, 123 to 124 °C for the second.

First: CCOC(=O)c1cc(S)cc(S)c1
Second: CCN(CC)c1ccc2cc(C(=O)NN)oc2c1
The melting point of the first is lower: 49 to 51 °C for the first, 127 to 129 °C for the second.

First: Cc1c(Br)c[nH]c1C=O
Second: Cc1cc2c(C=O)c3ccccc3c(C=O)c2cc1C
The melting point of the first is lower: 140 to 143 °C for the first, 203 to 204 °C for the second.

First: CCOC(=O)C1(O)c2ccccc2S(=O)(=O)N1Cc1ccc(Br)cc1 (centres undefined)
Second: COC(=O)C1(Cc2ccc(Br)cc2)CC(=O)CN1C(=O)Nc1cc(Cl)cc(Cl)c1 (centres undefined)
The melting point of the first is lower: 152 to 153 °C for the first, 194 °C for the second.

First: O=C(Nc1cc(C(F)(F)F)cc2c(Cl)ccnc12)c1c(Cl)cccc1Cl
Second: Cc1cc(NC(=O)Oc2ccc([N+](=O)[O-])cc2)cc(C(F)(F)F)c1
The melting point of the first is higher: 150 to 157 °C for the first, 136 to 138 °C for the second.

First: CCCCOc1cc(C(=O)O)cc(NC(C)=O)c1C(=O)c1ccccc1
Second: COC(=O)c1cccc(C(=O)c2ccc(O)c(OC)c2)c1
The melting point of the first is higher: 177 to 178 °C for the first, 133 to 134 °C for the second.

First: Cc1cc(C)c2c(c1C)OC(C)(C)C2=O
Second: CC(=O)NC(C)Cc1cc(C)c(C)cc1CC#N (centres undefined)
The melting point of the first is lower: 99 to 101 °C for the first, 140 to 141 °C for the second.

First: CCOC(=O)Cc1ccc(NC(=O)CCc2cnoc2-c2ccc(Cl)cc2)cc1
Second: O=C(O)Cc1ccc(NC(=O)C(Cn2ccnc2)NS(=O)(=O)c2ccc(Br)cc2)cc1 (racemic)
The melting point of the first is lower: 117 to 118 °C for the first, 131 to 140 °C for the second.

Compared with `CN(C)C1(c2cccc(F)c2)CCC(c2[nH]c3ccccc3c2CCc2ccncc2)CC1` (centres undefined), `CN1CCC(O)(c2cccc3ccc(N(Cc4ccccc4)Cc4ccccc4)cc23)CC1` is lower in melting point: 301 to 314 °C for the first, 173 to 174 °C for the second.

First: COC(=O)c1ccc(C2=NC(C)(C)Cc3cc(OC)c4c(c32)CC(C)(C)O4)cc1NC(=O)C(F)(F)F
Second: COc1cc(Nc2ncc(C#N)c(-c3ccc(CO)cc3)n2)cc(OC)c1OC
The melting point of the first is lower: 146 to 147 °C for the first, 188 to 191 °C for the second.

First: NC(=O)CC1CCC(OCc2ccccc2)c2sccc21 (centres undefined)
Second: OCC1(CO)C=CC(c2ccccc2)=CC1
The melting point of the first is lower: 139 to 143 °C for the first, 187 to 188 °C for the second.

Compared with `COc1ccc2c(c1)CC1(CCC(=O)CC1)C21OCCO1`, `Cc1ccc(OC(=O)n2c3c(c(=O)n(C4CCCCO4)c2=O)CCC3)cc1` (centres undefined) is lower in melting point: 142 to 144 °C for the first, 136 °C for the second.

Going from `CC(=O)c1nn(-c2c(Cl)cc(C(F)(F)F)cc2Cl)cc1C1CC1(Br)Br` (centres undefined) to `Cn1c(-c2ccc(Cl)cc2)c(C#N)c(Cl)c1C(F)(F)F`, the melting point falls from 150 °C to 110 °C.

First: OC1(c2ccc(Cl)c(Cl)c2)CCN(CCCOc2ccc(Cl)c(Cl)c2)CC1
Second: CCC(NC(=O)C1CC1)c1ccc(Cl)c2nc3n(c12)CCCN3c1ccc(Cl)cc1Cl (centres undefined)
The melting point of the first is lower: 118 °C for the first, 251 to 253 °C for the second.

First: COC(=O)[C@@H](O)[C@H](CC(C)C)NC(=O)OC(C)(C)C
Second: Cc1nc(Br)sc1NC(=O)OC(C)(C)C
The melting point of the first is lower: 84 to 85 °C for the first, 114 to 116 °C for the second.

First: COC(=O)c1ccccc1Oc1ccc(Br)cc1[N+](=O)[O-]
Second: O=C1c2ccccc2COc2ccc(O)cc21
The melting point of the first is lower: 82 to 83 °C for the first, 165 to 166 °C for the second.

Compared with `COC(=O)C1(C(=O)OC)CN(C(=O)OC(C)(C)C)c2cc([N+](=O)[O-])ccc21`, `CC(C)(C)NC(=O)OC1SCN(c2ccccc2)C1=O` (centres undefined) is higher in melting point: 132 °C for the first, 146 to 148 °C for the second.

First: CC(N)=CC(=O)OCC1CC1
Second: NC(=NOC(=O)c1ccccc1)c1nc(Cl)c(Cl)[nH]1
The melting point of the first is lower: 55 to 58 °C for the first, 177 to 178 °C for the second.

First: COc1ccc(-c2nc(N3CCOCC3)c3c(C)c(C#N)sc3n2)cc1OC
Second: COCCCNc1ncnc2c1sc1nc(N3CCOCC3)c3c(c12)CC(C)(C)OC3
The melting point of the first is higher: 194 to 196 °C for the first, 178 to 179 °C for the second.

First: OCc1cccc(-c2nn(-c3ccc(F)cc3F)c3c2C2CCC3C2)c1 (centres undefined)
Second: COC(=O)c1c(N)c(-c2ccc(I)cc2)nc2ccc(F)cc12
The melting point of the first is lower: 113 to 115 °C for the first, 223 to 225 °C for the second.

First: CC1SC(=O)N(C(=O)C2CC3CCC2(C)C3(C)C)N=C1c1ccc2c(c1)CCCN2C(=O)c1ccc2c(c1)OCO2 (centres undefined)
Second: Cc1ccc(CCNC(=O)c2ccc3n2Cc2ccccc2N(C(=O)c2ccc(-c4ccccc4C)c(C)c2)C3)cc1
The melting point of the first is higher: 216 to 217 °C for the first, 161 to 163 °C for the second.

First: Cc1nc(OS(=O)(=O)C(F)(F)F)c([N+](=O)[O-])c(NCC(C)(C)O)c1C
Second: CCOC(=O)N(c1ccc(C(O)(C(F)(F)F)C(F)(F)F)cc1)S(C)(=O)=O
The melting point of the first is lower: 79 to 80 °C for the first, 108 to 112 °C for the second.

First: C=CCNc1nc(Cl)nc(N(CCCCCCN(c2nc(Cl)nc(NCC=C)n2)C2CC(C)(C)NC(C)(C)C2)C2CC(C)(C)NC(C)(C)C2)n1
Second: C=CCN1C(=O)COc2ccc(C3CC(=O)C(C(CC)=NOCC)=C(O)C3)cc21 (centres undefined)
The melting point of the first is higher: 210 to 211 °C for the first, 79 to 83 °C for the second.

First: CC1Cc2cc(S(=O)(=O)n3cc(-c4ccccc4)[nH]c3=O)ccc2N1C(=O)c1ccc([N+](=O)[O-])cc1 (centres undefined)
Second: O=C1N(Cc2cccc(OCc3ccccc3)c2)c2ccccc2C12COc1cc3c(cc12)CCO3 (centres undefined)
The melting point of the first is higher: 168 to 172 °C for the first, 66 to 68 °C for the second.

Compared with `CCCc1nc(-n2cccc2C(=O)C(F)(F)F)c(C#N)[nH]1`, `CSCc1cnc2ccccc2c1O` is higher in melting point: 104 to 105 °C for the first, 196 to 197 °C for the second.

Compared with `CCC1N=NC(c2ccccc2)=C(O)N1C` (centres undefined), `Cn1ccc2ccc(O)cc21` is lower in melting point: 122 °C for the first, 74 °C for the second.

First: Cn1cc(C(=O)O)c(=O)c2oc3ccccc3c(=O)c21
Second: CN(C)Cc1c(-c2ccc3sc(=O)n(C)c3c2)nc2ccccn12
The melting point of the first is higher: 308 to 312 °C for the first, 137 to 140 °C for the second.

Compared with `c1cc2c(cn1)OCCN2`, `O=C(Nc1ccc2[nH]ncc2c1)O[C@@H](c1cccc(I)c1)[C@@H]1CCCCN1` is lower in melting point: 167 to 169 °C for the first, 126 °C for the second.

`Clc1ccc(CN2CC=C(/C=C/c3cccc(Cl)c3)CC2)cc1` gave a melting point of 94 to 96 °C.
